Test results published in ChEMBL document CHEMBL1144941, “Synthesis of second-generation transition state analogues of human purine nucleoside phosphorylase” (J Med Chem, 2003).

Biological target: T1, Purine nucleoside phosphorylase (Homo sapiens) (UniProt P00491)
T1 sequence (whole entry): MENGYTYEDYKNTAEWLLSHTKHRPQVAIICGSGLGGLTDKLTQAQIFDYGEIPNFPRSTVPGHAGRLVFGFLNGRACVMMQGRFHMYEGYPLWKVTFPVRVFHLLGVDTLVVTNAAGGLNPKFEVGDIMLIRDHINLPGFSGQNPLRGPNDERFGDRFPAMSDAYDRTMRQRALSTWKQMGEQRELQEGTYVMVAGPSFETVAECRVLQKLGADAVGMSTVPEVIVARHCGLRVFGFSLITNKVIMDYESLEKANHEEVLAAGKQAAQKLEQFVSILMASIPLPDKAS
Details: Urine

- NS: No slow onset
Compound: OC[C@H]1CN(Cc2n[nH]c3c(O)ncnc23)CC1O (stereo partly specified)
